Measurements reported in patent US8242157B2, “Benzimidazole derivatives useful as TRPM8 channel modulators” (Janssen Pharmaceutica NV, priority 2009, dated 2012).
Several values for one entry are separate records, joined by “and”; a condition that tells them apart may be missing. Equal entries are not always repeated. Where two headings read alike, the source gives them in different places.

Experiments:
[1] = tested on: icilin-induced "wet-dog" shakes; experiment: Inhibition of icilin-induced "wet-dog" shakes in rats; assay type: in vivo; settings: male Sprague Dawley rats; 10 mg/kg p.o., 60 min pre-icilin; vehicle 10% Solutol (0.5% HPMC for 47); [1-(test compound WDS count/vehicle WDS count)]x100
Procedure: Male Sprague Dawley rats ([…], Charles River Labs, n=6-9/treatment) were used to evaluate the ability of test compounds to block icilin-induced “wet-dog” shakes (WDS). The test compound was administered in an appropriate vehicle, such as hydroxypropyl-β-cyclodextrin (HP-β-CD), methocellulose, 10% Solutol, H2O or the like, by the appropriate route (e.g., i.p. or p.o.), 30-60 min before icilin. Icilin was then administered in PEG-400 or 10% solutol/H2O, at 1.0 or 3.0 mg/kg, i.p. and spontaneous “wet-dog” shakes were counted 10-20 min post-icilin.
Representative compounds of the present invention were tested at 10 mg/kg p.o. and 60 min pre-incilin, according to the procedure as described above. Results, as listed in Table 7 below, are presented as a percent inhibition of shakes, which was calculated as [1−(test compound WDS count/vehicle WDS count)]×100.

canine TRPM8 = biological target: T1, canine TRPM8 (Canis lupus familiaris, UniProt Q1A7N1); experiment: In Vitro Canine TRPM8 Functional Assay (icilin-induced intracellular Ca2+, FLIPR/FDSS); assay type: cell-based; settings: for % Inh @ 0.2 μM: 0.2 μM compound; for IC50: icilin at approx. 80% maximal response, eight-point concentration-response
T1 construct: expressed in transfected cells
T1 sequence (Q1A7N1 1-1104): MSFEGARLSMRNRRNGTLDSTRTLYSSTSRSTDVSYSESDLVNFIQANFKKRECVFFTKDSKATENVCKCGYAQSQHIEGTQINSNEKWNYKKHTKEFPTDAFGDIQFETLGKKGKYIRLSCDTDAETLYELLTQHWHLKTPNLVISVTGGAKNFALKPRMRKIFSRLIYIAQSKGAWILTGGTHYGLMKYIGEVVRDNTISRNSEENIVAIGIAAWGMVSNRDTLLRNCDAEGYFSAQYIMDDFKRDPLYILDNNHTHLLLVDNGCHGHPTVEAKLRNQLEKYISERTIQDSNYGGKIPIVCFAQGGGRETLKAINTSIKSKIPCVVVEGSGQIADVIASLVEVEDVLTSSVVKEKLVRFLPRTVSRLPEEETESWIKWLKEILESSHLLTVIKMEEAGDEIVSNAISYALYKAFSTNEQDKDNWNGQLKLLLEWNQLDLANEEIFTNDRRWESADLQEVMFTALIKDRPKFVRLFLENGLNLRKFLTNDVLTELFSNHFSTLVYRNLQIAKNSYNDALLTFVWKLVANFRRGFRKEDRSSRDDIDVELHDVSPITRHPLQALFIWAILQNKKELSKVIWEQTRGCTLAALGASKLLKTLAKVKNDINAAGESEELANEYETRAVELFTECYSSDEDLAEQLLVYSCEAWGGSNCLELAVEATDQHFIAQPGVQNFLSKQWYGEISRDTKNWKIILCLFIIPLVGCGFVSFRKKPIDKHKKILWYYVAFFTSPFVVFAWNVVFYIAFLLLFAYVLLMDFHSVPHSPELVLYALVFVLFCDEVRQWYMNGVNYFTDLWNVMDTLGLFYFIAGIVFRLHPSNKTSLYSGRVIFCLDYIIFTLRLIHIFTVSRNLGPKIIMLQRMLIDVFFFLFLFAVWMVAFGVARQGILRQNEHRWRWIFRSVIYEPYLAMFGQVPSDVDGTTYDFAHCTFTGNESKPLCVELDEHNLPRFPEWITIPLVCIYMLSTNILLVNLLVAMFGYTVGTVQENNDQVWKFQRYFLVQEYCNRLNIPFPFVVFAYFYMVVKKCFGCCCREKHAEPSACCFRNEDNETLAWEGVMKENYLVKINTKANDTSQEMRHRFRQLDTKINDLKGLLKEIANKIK
Procedure: The functional activity of representative compounds of the formula (I) of the present invention was quantified by measuring changes in intracellular calcium concentration using a Ca^2+-sensitive fluorescent dye. The changes in fluorescent signal were monitored by a fluorescence plate reader, either a FLIPR™ (Molecular Devices) or FDSS (Hamamatsu).
HEK293 cells stably expressing canine TRPM8 were routinely grown as monolayers in Dulbecco's minimum essential medium supplemented with 10% FBS, 2 mM L-glutamine, 100 units/mL penicillin, 100 ug/mL streptomycin and 400 μg/mL G418. Cells were maintained in 5% CO2 at 37° C. At 24 hr prior to assay, cells were seeded in black wall, clear-base poly-D-lysine coated 384-well plates (BD Biosciences, NJ, USA) at a density of 5,000 cells per well in culture medium and grown overnight in 5% CO2 at 37° C. On assay day, growth media was removed, and cells were loaded with Calcium 3 Dye (Molecular Devices) for 35 min at 37° C., under 5% CO2 and then incubated for 25 min at room temperature and atmosphere. Subsequently, cells were tested for agonist-induced increases in intracellular Ca^2+ levels using FLIPR™ or FDSS. Cells were treated with compounds of the formula (I) at varying concentrations and intracellular […] was measured for 5 min prior to the addition of icilin to all wells to achieve a final concentration that produces approximately an 80% maximal response.
Basal FI was subtracted prior to normalizing data to percent of maximal response. Curves were generated using the average of quadruplicate wells for each data point using nonlinear regression of either sigmoidal dose response or sigmoidal dose response (variable slope). Finally, the EC50 and IC50 values were calculated with the best-fit curve determined by GraphPad Prism

[2] = HEK293 cells stably expressing canine TRPM8, icilin activation, 0.2 µM
[3] = HEK293, 0.2 μM compound, HEK293 cells stably expressing canine TRPM8, icilin activation, read-out: % Inh @ 0.2 μM
[4] = HEK293 cells stably expressing canine TRPM8, read-out: IC50

| inhibition at 0.2 µM (canine TRPM8; [3]) [%] | IC50 (canine TRPM8; [4]) | SMILES | further results |
| --- | --- | --- | --- |
| 101 | 1 nM and 2 nM | Cn1c(N(Cc2ccc(OC(F)(F)F)cc2)S(=O)(=O)c2ccccc2)nc2ccccc21 [Compound #6] | % Inhibition of shakes [1]: 20.2%; % Inh @ 0.2 μM (canine TRPM8; [2]): 100% |
| 102 | 1 nM and 4 nM | Cn1c(N(Cc2ccc(F)c(C(F)(F)F)c2)S(=O)(=O)c2ccccc2)nc2ccccc21 [Compound #15, N-(4-Fluoro-3-trifluoromethyl-benzyl)-N-(1-methyl-1H-benzimidazol-2-yl)-benzenesulfonamide] | % Inhibition of shakes [1]: 27.7%; % Inh @ 0.2 μM (canine TRPM8; [2]): 98% |
| – | – | CCn1c(N(Cc2ccc(C(F)(F)F)cc2)S(=O)(=O)c2ccccc2)nc2cc(F)ccc21 [Compound #47, N-(1-Ethyl-5-fluoro-1H-benzimidazol-2-yl)-N-(4-trifluoromethyl-benzyl)-benzenesulfonamide] | % Inhibition of shakes [1]: 36%; inhibition at 0.2 µM (canine TRPM8; HEK293, read-out: % Inh @ 0.2 μM): 100%; IC50 (canine TRPM8; IC50, HEK293 cells stably expressing canine TRPM8): 6 nM |
| 101 | 1 nM | Cn1c(N(Cc2ccc(F)c(Cl)c2)S(=O)(=O)c2ccccc2)nc2ccccc21 [compound 20] | % Inhibition of shakes [1]: 32.6% |
| 85 | 15 nM and 75 nM | O=S(=O)(c1ccccc1)N(Cc1ccc(C(F)(F)F)cc1)c1nc2ccccc2n1CC(F)(F)F [compound 54] | % Inhibition of shakes [1]: 2.4%; % Inh @ 0.2 μM (canine TRPM8; HEK293 cells stably expressing canine TRPM8, icilin activation): 85, 85% |
| 96 | 24 nM | CC(C)n1c(N(Cc2ccc(C(F)(F)F)c(F)c2)S(=O)(=O)c2ccccc2)nc2cc(Cl)ccc21 [compound 56] | – |
| 99 | 9 nM | Cn1c(N(Cc2ccc(OC(F)(F)F)cc2)S(=O)(=O)c2ccccc2)nc2cc(F)ccc21 [compound 57] | – |
| 99 | 6 nM | Cn1c(N(Cc2ccc(C(F)(F)F)c(F)c2)S(=O)(=O)c2ccccc2)nc2cc(F)ccc21 [compound 58] | – |
| 76 | 77 nM | O=S(=O)(c1ccccc1)N(Cc1ccc(OC(F)(F)F)cc1)c1nc2ccccc2n1CC(F)(F)F [compound 59] | – |
| 96 | 47 nM | CC(C)n1c(N(Cc2ccc(OC(F)(F)F)cc2)S(=O)(=O)c2ccccc2)nc2cc(Cl)ccc21 [compound 61] | – |
| 100 | 19 nM | O=S(=O)(c1ccccc1)N(Cc1ccc(OC(F)(F)F)cc1)c1nc2cccc3c2n1CCC3 [compound 62] | – |
| 101 | 22 nM | O=S(=O)(c1ccccc1)N(Cc1ccc(C(F)(F)F)c(F)c1)c1nc2cccc3c2n1CCC3 [compound 63] | – |
| 101 | 17 nM | O=S(=O)(c1ccccc1)N(Cc1ccc(C(F)(F)F)cc1)c1nc2cccc3c2n1CCC3 [compound 65] | – |
| 98 | 21 nM | Cc1ccc2nc(N(Cc3ccc(OC(F)(F)F)cc3)S(=O)(=O)c3ccccc3)n(C)c2c1 [compound 66] | – |
| 99 | 24 nM | Cc1ccc2nc(N(Cc3ccc(C(F)(F)F)cc3)S(=O)(=O)c3ccccc3)n(C)c2c1 [compound 68] | – |
| 101 | 26 nM | O=S(=O)(c1ccccc1)N(Cc1ccc(OC(F)(F)F)cc1)c1nc2ccccc2n1CC1CC1 [compound 69] | – |
| 101 | 35 nM | O=S(=O)(c1ccccc1)N(Cc1ccc(C(F)(F)F)cc1)c1nc2ccccc2n1CC1CC1 [compound 70] | – |
| 99 | 19 nM | Cc1cc2nc(N(Cc3ccc(OC(F)(F)F)cc3)S(=O)(=O)c3ccccc3)n(C)c2cc1C [compound 74] | – |
| 101 | 28 nM | Cc1cc2nc(N(Cc3ccc(C(F)(F)F)c(F)c3)S(=O)(=O)c3ccccc3)n(C)c2cc1C [compound 75] | – |
| 101 | 9.4 nM | Cc1cccc2c1nc(N(Cc1ccc(C(F)(F)F)c(F)c1)S(=O)(=O)c1ccccc1)n2C [compound 76] | – |
